From ChEMBL document CHEMBL5321239, “Exploration of imatinib and nilotinib-derived templates as the P2-Ligand for HIV-1 protease inhibitors: Design, synthesis, protein X-ray structural studies, and biological evaluation” (Eur J Med Chem, 2023) come the findings set out here.

One may read the IC50 as the point on the concentration scale where inhibition reaches its midpoint. One may read the Ki as the dissociation constant of the complex between target and ligand, obtained from inhibition or displacement.

A value given as a limit tells only on which side of the number the result lay.

In test [1] the test system is Human immunodeficiency virus. Put plainly: Antiviral activity against HIV LAI infected in human MT2 cells assessed as inhibition of viral growth. Format: functional, organism-based. As to conditions: Human immunodeficiency virus 1, LAI.
Test [2] deals with Human immunodeficiency virus type 1 protease (Human immunodeficiency virus 1, UniProt Q72874). Put plainly: Inhibition of HIV-1 protease expressed in Escherichia coli assessed as inhibition constant using Ac-Thr-Ile-Met-Met-Gln-Arg as substrate preincubated for 10 mins followed by substrate addition by HPLC analysis.

`CC(C)CN(C[C@@H](O)[C@H](Cc1ccccc1)NC(=O)O[C@H]1CO[C@H]2OCC[C@H]21)S(=O)(=O)c1ccc(N)cc1`: the IC50 in test [1] amounted to 2.1 nM.

As to `COCc1csc(Nc2ccc(C)c(C(=O)N[C@@H](Cc3ccccc3)[C@H](O)CN(CC(C)C)S(=O)(=O)c3ccc(OC)cc3)c2)n1`, the IC50 in test [1] is 630 nM.

As to `COc1ccc(S(=O)(=O)N(CC(C)C)C[C@@H](O)[C@H](Cc2cc(F)cc(F)c2)NC(=O)c2ccc(C)c(Nc3nccc(-c4cccnc4)n3)c2)cc1`, the IC50 in test [1] worked out at 124 nM.

Take `COc1ccc(S(=O)(=O)N(CC(C)C)C[C@@H](O)[C@H](Cc2ccccc2)NC(=O)c2cc(C)cc(Nc3nc(-c4cccnc4)cs3)c2)cc1`: the IC50 in test [1] is over 1000 nM.

As to `COc1ccc(S(=O)(=O)N(CC(C)C)C[C@@H](O)[C@H](Cc2ccccc2)NC(=O)c2cccc(Nc3nc(C(F)(F)F)cs3)c2C)cc1`, the IC50 in test [1] was over 1000 nM.

With `COc1ccc(S(=O)(=O)N(CC(C)C)C[C@@H](O)[C@H](Cc2ccccc2)NC(=O)c2ccc(C)c(Nc3nc(C)cs3)c2)cc1`, in test [2], the Ki is 26.5 nM. In addition, in test [1], the half-inhibitory concentration (IC50) is over 1000 nM.

Consider `Cc1ccc(C(=O)N[C@@H](Cc2cc(F)cc(F)c2)[C@H](O)CN(CC(C)C)S(=O)(=O)c2ccc(N)cc2)cc1Nc1nccc(-c2cccnc2)n1`, for which, in test [1], the IC50 was 212 nM.

In the case of `COc1ccc(S(=O)(=O)N(CC(C)C)C[C@@H](O)[C@H](Cc2ccccc2)NC(=O)c2cc(C)cc(Nc3nc(C)cs3)c2)cc1`, in test [1], the IC50 is over 1000 nM.

Take `COc1ccc(S(=O)(=O)N(CC(C)C)C[C@@H](O)[C@H](Cc2ccccc2)NC(=O)c2ccc(C)c(Nc3nccc(-c4cccnc4)n3)c2)cc1`: the Ki in test [2] was 0.028 nM. Besides, the IC50 in test [1] was 154 nM.

As to `COc1ccc(S(=O)(=O)N(CC(C)C)C[C@@H](O)[C@H](Cc2ccccc2)NC(=O)c2cccc(Nc3nc(-c4cccnc4)cs3)c2C)cc1`, the Ki in test [2] was determined as 19.3 nM. For the same compound, the IC50 in test [1] is over 1000 nM.

As to `Cc1ccc(C(=O)N[C@@H](Cc2ccccc2)[C@H](O)CN(CC(C)C)S(=O)(=O)c2ccc(N)cc2)cc1Nc1nccc(-c2cccnc2)n1`, the half-maximal inhibitory concentration (IC50) in test [1] was 66.8 nM.

On to `COc1ccc(S(=O)(=O)N(CC(C)C)C[C@@H](O)[C@H](Cc2ccccc2)NC(=O)c2ccc(C)c(Nc3nc(C(F)(F)F)cs3)c2)cc1`, for which the IC50 in test [1] is over 1000 nM.

On to `COc1ccc(S(=O)(=O)N(CC(C)C)C[C@@H](O)[C@H](Cc2ccccc2)NC(=O)c2ccc(C)c(Nc3nc(-c4cccnc4)cs3)c2C)cc1`, for which the IC50 in test [1] was 510 nM.

For the compound `COc1ccc(S(=O)(=O)N(CC(C)C)C[C@@H](O)[C@H](Cc2ccccc2)NC(=O)c2cc(Nc3nc(-c4cccnc4)cs3)ccc2C)cc1`, the Ki in test [2] is 8.7 nM. Moreover, the IC50 in test [1] amounted to 580 nM.

Consider `COc1ccc(S(=O)(=O)N(CC(C)C)C[C@@H](O)[C@H](Cc2ccccc2)NC(=O)c2cccc(Nc3nc(C)cs3)c2C)cc1`, for which the IC50 in test [1] was over 1000 nM.

For the compound `COc1ccc(S(=O)(=O)N(CC(C)C)C[C@@H](O)[C@H](Cc2ccccc2)NC(=O)c2cc(Nc3nc(C)cs3)ccc2C)cc1`, in test [1], the IC50 is over 1000 nM.

On to `COc1ccc(S(=O)(=O)N(CC(C)C)C[C@@H](O)[C@H](Cc2ccccc2)NC(=O)c2ccc(C)c(Nc3nc(-c4cccnc4)cs3)c2)cc1`, for which the IC50 in test [1] is 390 nM.
